Patent publication US11319299B2, “Substituted carboxamides as inhibitors of WDR5 protein-protein binding” (PROPELLON THERAPEUTICS INC., priority 2016, dated 2022)

Each compound was assayed against WDR5 (Homo sapiens (Human), UniProt P61964) (assay: Surface Plasmon Resonance (SPR) assay, KD and residence time). Conditions: surface plasmon resonance (SPR) assay; read-out: WDR5 binding affinity (KD).
Assay type: binding
Experimental: (i) Surface Plasmon Resonance (SPR) Assay
The lifetime of a drug on its target is determined by two rate constants: the association rate constant (kon) and the dissociation rate constant (koff). In principle, the lifetime of the binary drug—target complex is thus extended by a rapid rate of drug binding and/or a slow rate of drug—target complex dissociation. The in vivo lifetime of a drug-target complex is most critically dependent on the value of the koff [Nat. Rev. Drug Discov. […] Drug Discov. […] Drug-target residence time is defined as the reciprocal of koff (τ=1/koff), making the residence time a parameter that is easily measured by routine in vitro assay methods.

Kd [nM] | Compound
2.01 | CC1CN(c2cc(F)c(-c3ccc(N4CCOCC4)nc3)cc2NC(=O)c2c[nH]c(=O)cc2C(F)F)CCN1C (stereo in doubt) [Example 331, 4-(difluoromethyl)-N-[4-fluoro-5-(6-morpholin-4-ylpyridin-3-yl)-2-[(3R)-3,4-dimethylpiperazin-1-yl]phenyl]-6-oxo-1H-pyridine-3-carboxamide]
1.04 | C[C@@H]1CN(c2cc(F)c(C3=CCN(c4ncc(F)cn4)CC3)cc2NC(=O)c2c[nH]c(=O)cc2C(F)(F)F)C[C@H](C)N1C [Example 367, N-[4-fluoro-5-[1-(5-fluoropyrimidin-2-yl)-3,6-dihydro-2H-pyridin-4-yl]-2-[(3R,5S)-3,4,5-trimethylpiperazin-1-yl]phenyl]-6-oxo-4-(trifluoromethyl)-1H-pyridine-3-carboxamide]
8.08 | C[C@@H]1CN(c2cc(F)c(N3CCN(Cc4ccc(F)cc4)CC3)cc2NC(=O)c2c[nH]c(=O)cc2C(F)(F)F)C[C@H](C)N1C [Example 392, N-[4-fluoro-5-[4-[(4-fluorophenyl)methyl]piperazin-1-yl]-2-[(3R,5S)-3,4,5-trimethylpiperazin-1-yl]phenyl]-6-oxo-4-(trifluoromethyl)-1H-pyridine-3-carboxamide]
1.63 | C[C@@H]1CN(c2cc(F)c(-c3cnc4c(c3)OCCO4)cc2NC(=O)c2c[nH]c(=O)cc2C(F)(F)F)C[C@H](C)N1C [Example 223, N-[5-(2,3-dihydro-[1,4]dioxino[2,3-b]pyridin-7-yl)-4-fluoro-2-[(3R,5S)-3,4,5-trimethylpiperazin-1-yl]phenyl]-6-oxo-4-(trifluoromethyl)-1H-pyridine-3-carboxamide]
7.99 | C[C@@H]1CN(c2cc(F)c(-c3ccnc(N4CCOCC4)c3)cc2NC(=O)c2cn(C)c(=O)cc2C(F)(F)F)C[C@H](C)N1C [Example 226, N-[4-fluoro-5-(2-morpholin-4-ylpyridin-4-yl)-2-[(3R,5S)-3,4,5-trimethylpiperazin-1-yl]phenyl]-1-methyl-6-oxo-4-(trifluoromethyl)pyridine-3-carboxamide]
50.9 | C[C@@H]1CN(c2cc(F)c(-c3cnc(N4CCOCC4)nc3)cc2NC(=O)c2cc(F)cc(C(F)(F)F)c2)C[C@H](C)N1C [Example 176, 3-fluoro-N-[4-fluoro-5-(2-morpholin-4-ylpyrimidin-5-yl)-2-[(3R,5S)-3,4,5-trimethylpiperazin-1-yl]phenyl]-5-(trifluoromethyl)benzamide]
76.9 | C[C@@H]1CN(c2cc(F)c(-c3ccc(OCC4CC4)nc3)cc2NC(=O)c2cc(Cl)cc(Cl)c2)C[C@H](C)N1C [Example 250, 3,5-dichloro-N-[5-[6-(cyclopropylmethoxy)pyridin-3-yl]-4-fluoro-2-[(3R,5S)-3,4,5-trimethylpiperazin-1-yl]phenyl]benzamide]
1.01 | COc1cc(-c2cc(NC(=O)c3c[nH]c(=O)cc3C(F)(F)F)c(N3C[C@@H](C)N(C)[C@@H](C)C3)cc2F)cc(C(F)(F)F)n1 [Example 134, N-[4-fluoro-5-[2-methoxy-6-(trifluoromethyl)pyridin-4-yl]-2-[(3R,5S)-3,4,5-trimethylpiperazin-1-yl]phenyl]-6-oxo-4-(trifluoromethyl)-1H-pyridine-3-carboxamide]
11.1 | CC1CN(c2cc(Cl)c(-c3cnc(N4CCOCC4)nc3)cc2NC(=O)c2c[nH]c(=O)cc2C(F)(F)F)CCN1C (stereo in doubt) [Example 81, N-[4-chloro-5-(2-morpholin-4-ylpyrimidin-5-yl)-2-[(3R)-3,4-dimethylpiperazin-1-yl]phenyl]-6-oxo-4-(trifluoromethyl)-1H-pyridine-3-carboxamide]
0.24 | CC(=O)Nc1ccc(-c2cc(NC(=O)c3c[nH]c(=O)cc3C(F)(F)F)c(N3CCN(C)C(C)C3)cc2F)cn1 (stereo in doubt) [Example 196, N-[5-(6-acetamidopyridin-3-yl)-4-fluoro-2-[(3R)-3,4-dimethylpiperazin-1-yl]phenyl]-6-oxo-4-(trifluoromethyl)-1H-pyridine-3-carboxamide]

Same assay, conditions: surface plasmon resonance (SPR); read-out: WDR5 binding affinity (KD)

Compound | Kd [nM]
4-(difluoromethyl)-N-[4-fluoro-5-[2-[(2R)-2-methylmorpholin-4-yl]pyrimidin-5-yl]-2-[(3S,5R)-3,4,5-trimethylpiperazin-1-yl]phenyl]-1-methyl-6-oxopyridine-3-carboxamide [Example 481] | 4.89
C[C@@H]1CN(c2cc(F)c(C3=CCN(c4ncc(F)cn4)C3)cc2NC(=O)c2c[nH]c(=O)cc2C(F)(F)F)C[C@H](C)N1C [Example 440, N-[4-fluoro-5-[1-(5-fluoropyrimidin-2-yl)-2,5-dihydropyrrol-3-yl]-2-[(3R,5S)-3,4,5-trimethylpiperazin-1-yl]phenyl]-6-oxo-4-(trifluoromethyl)-1H-pyridine-3-carboxamide] | 2.88

Now from value to compound:

Kd [nM] | Compound
0.6 | CNC(=O)c1ccc(-c2cc(NC(=O)c3c[nH]c(=O)cc3C(F)F)c(N3C[C@@H](C)N(C)[C@@H](C)C3)cc2F)cc1F [Example 605, 4-(difluoromethyl)-N-[4-fluoro-5-[3-fluoro-4-(methylcarbamoyl)phenyl]-2-[(3R,5S)-3,4,5-trimethylpiperazin-1-yl]phenyl]-6-oxo-1H-pyridine-3-carboxamide]
1.31 | C[C@@H]1CN(c2cc(F)c(-c3csc(C(=O)N(C)C4CCCCC4)n3)cc2NC(=O)c2c[nH]c(=O)cc2C(F)(F)F)C[C@H](C)N1C [Example 534, N-cyclohexyl-4-[2-fluoro-5-[[6-oxo-4-(trifluoromethyl)-1H-pyridine-3-carbonyl]amino]-4-[(3R,5S)-3,4,5-trimethylpiperazin-1-yl]phenyl]-N-methyl-1,3-thiazole-2-carboxamide]
172 | CC1CN(c2cc(F)c(-c3cc(C(=O)NC(C)(C)CC(C)(C)C)c(F)cc3F)cc2NC(=O)c2ccc(F)cc2C(F)(F)F)CCN1C (stereo in doubt) [Example 625, 2,4-difluoro-5-[2-fluoro-5-[[4-fluoro-2-(trifluoromethyl)benzoyl]amino]-4-[(3R)-3,4-dimethylpiperazin-1-yl]phenyl]-N-(2,4,4-trimethylpentan-2-yl)benzamide]
4 | C[C@@H]1CN(c2nccc(-c3cc(NC(=O)c4ccc(F)cc4C(F)(F)F)c(N4CCN(C)[C@@H](C)C4)cc3F)n2)CCO1 [Example 738, 4-fluoro-N-[4-fluoro-2-[(3S)-3,4-dimethylpiperazin-1-yl]-5-[2-[(2R)-2-methylmorpholin-4-yl]pyrimidin-4-yl]phenyl]-2-(trifluoromethyl)benzamide]
3.55 | CC(C)OC(=O)N1CCC=C(c2cc(NC(=O)c3ccc(F)cc3C(F)(F)F)c(N3CCN(C)C(C)C3)cc2F)C1 (stereo in doubt) [Example 728, propan-2-yl 5-[2-fluoro-5-[[4-fluoro-2-(trifluoromethyl)benzoyl]amino]-4-[(3R)-3,4-dimethylpiperazin-1-yl]phenyl]-3,6-dihydro-2H-pyridine-1-carboxylate]
2.8 | C[C@@H]1CN(c2cc(F)c(-c3csc(C(=O)N4CCOCC4)n3)cc2NC(=O)c2c[nH]c(=O)cc2C(F)(F)F)C[C@H](C)N1C [Example 535, N-[4-fluoro-5-[2-(morpholine-4-carbonyl)-1,3-thiazol-4-yl]-2-[(3R,5S)-3,4,5-trimethylpiperazin-1-yl]phenyl]-6-oxo-4-(trifluoromethyl)-1H-pyridine-3-carboxamide]
168 | O=C(Nc1cc(-c2cnc(N3CCOCC3)nc2)c(F)cc1N1C[C@H]2CCN[C@H]2C1)c1c[nH]c(=O)cc1C(F)(F)F (stereo in doubt) [Example 463, N-[4-fluoro-5-(2-morpholin-4-ylpyrimidin-5-yl)-2-[(3aR,6aR)-2,3,3a,4,6,6a-hexahydro-1H-pyrrolo[2,3-c]pyrrol-5-yl]phenyl]-6-oxo-4-(trifluoromethyl)-1H-pyridine-3-carboxamide]
4.87 | C[C@@H]1CN(c2cc(F)c(C3=CCN(C(=O)OC4(C)COC4)CC3)cc2NC(=O)c2c[nH]c(=O)cc2C(F)(F)F)C[C@H](C)N1C [Example 488, (3-methyloxetan-3-yl) 4-[2-fluoro-5-[[6-oxo-4-(trifluoromethyl)-1H-pyridine-3-carbonyl]amino]-4-[(3R,5S)-3,4,5-trimethylpiperazin-1-yl]phenyl]-3,6-dihydro-2H-pyridine-1-carboxylate]
2.53 | C[C@@H]1CN(c2cc(F)c(-c3ccnc(OC4CCOCC4)n3)cc2NC(=O)c2c[nH]c(=O)cc2C(F)(F)F)C[C@H](C)N1C [Example 695, N-[4-fluoro-5-[2-(oxan-4-yloxy)pyrimidin-4-yl]-2-[(3R,5S)-3,4,5-trimethylpiperazin-1-yl]phenyl]-6-oxo-4-(trifluoromethyl)-1H-pyridine-3-carboxamide]
0.944 | C[C@@H]1CN(c2cc(F)c(-c3ccnc(NC4CCCCC4)n3)cc2NC(=O)c2c[nH]c(=O)cc2C(F)(F)F)C[C@H](C)N1C [Example 537, N-[5-[2-(cyclohexylamino)pyrimidin-4-yl]-4-fluoro-2-[(3R,5S)-3,4,5-trimethylpiperazin-1-yl]phenyl]-6-oxo-4-(trifluoromethyl)-1H-pyridine-3-carboxamide]
0.947 | C[C@@H]1CN(c2ccc(-c3cc(NC(=O)c4c[nH]c(=O)cc4C(F)F)c(N4CCN(C)[C@@H](C)C4)cc3F)cn2)CCO1 [Example 509, 4-(difluoromethyl)-N-[4-fluoro-2-[(3S)-3,4-dimethylpiperazin-1-yl]-5-[6-[(2R)-2-methylmorpholin-4-yl]pyridin-3-yl]phenyl]-6-oxo-1H-pyridine-3-carboxamide]
253 | CN(CC1CC1)[C@@H]1CCN(c2cc(F)c(-c3cnc(N4CCOCC4)nc3)cc2NC(=O)c2cn(C)c(=O)cc2C(F)(F)F)C1 [Example 587, N-[4-fluoro-5-(2-morpholin-4-ylpyrimidin-5-yl)-2-[(3R)-3-[cyclopropylmethyl(methyl)amino]pyrrolidin-1-yl]phenyl]-1-methyl-6-oxo-4-(trifluoromethyl)pyridine-3-carboxamide]
